Measurements as given in PMC6199744, “Development of Chemical Proteomics for the Folateome and Analysis of the Kinetoplastid Folateome” (ACS Infectious Diseases, 2018).
Where two headings read alike, the source gives them in different places.

Legend:
Type in all cases: binding
[1] = molecular target: T1, HeLa cell extract proteins (Homo sapiens, UniProt P07237)
T1 construct: endogenous in cells; host or cells: HeLa cell extract

[2] = molecular target: T2, HeLa cell extract proteins (Homo sapiens, UniProt O15269)
T2 construct: endogenous in cells; host or cells: HeLa cell extract
T2 sequence (O15269 1-473): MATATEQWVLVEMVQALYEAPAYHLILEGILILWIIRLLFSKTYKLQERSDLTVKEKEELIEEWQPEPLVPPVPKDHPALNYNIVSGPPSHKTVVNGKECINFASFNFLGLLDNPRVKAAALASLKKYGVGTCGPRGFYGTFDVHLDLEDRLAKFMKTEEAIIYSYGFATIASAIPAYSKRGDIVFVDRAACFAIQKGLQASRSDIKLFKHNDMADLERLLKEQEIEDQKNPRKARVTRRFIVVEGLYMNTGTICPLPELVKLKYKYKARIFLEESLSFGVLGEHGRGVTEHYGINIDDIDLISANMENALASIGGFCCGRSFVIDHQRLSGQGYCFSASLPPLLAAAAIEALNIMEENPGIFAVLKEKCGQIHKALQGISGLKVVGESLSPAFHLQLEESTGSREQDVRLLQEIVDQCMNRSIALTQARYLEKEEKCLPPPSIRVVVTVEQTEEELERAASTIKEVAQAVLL

[3] = molecular target: T3, HeLa cell extract proteins (Homo sapiens, UniProt P09497)
T3 construct: endogenous in cells; host or cells: HeLa cell extract
T3 sequence (P09497 1-229): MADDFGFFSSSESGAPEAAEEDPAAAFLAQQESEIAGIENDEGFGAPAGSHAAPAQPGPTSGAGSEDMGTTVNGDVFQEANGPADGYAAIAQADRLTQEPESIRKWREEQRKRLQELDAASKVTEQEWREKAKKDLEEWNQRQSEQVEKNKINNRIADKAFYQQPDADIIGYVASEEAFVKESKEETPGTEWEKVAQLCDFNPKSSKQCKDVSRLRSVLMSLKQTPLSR

[4] = molecular target: T4, HeLa cell extract proteins (Homo sapiens, UniProt Q00325)
T4 construct: endogenous in cells; host or cells: HeLa cell extract
T4 sequence (Q00325 50-362): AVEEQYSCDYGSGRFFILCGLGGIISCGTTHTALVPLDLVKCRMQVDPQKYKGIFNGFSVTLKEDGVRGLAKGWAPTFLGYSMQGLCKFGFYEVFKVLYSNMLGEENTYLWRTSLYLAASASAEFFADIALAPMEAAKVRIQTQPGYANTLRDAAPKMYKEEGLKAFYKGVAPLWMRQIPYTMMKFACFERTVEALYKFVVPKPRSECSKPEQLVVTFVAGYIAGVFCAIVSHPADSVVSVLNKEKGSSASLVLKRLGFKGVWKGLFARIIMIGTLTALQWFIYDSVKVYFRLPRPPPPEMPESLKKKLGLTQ

[5] = molecular target: T5, HeLa cell extract proteins (Homo sapiens, UniProt Q9Y6D5)
T5 construct: endogenous in cells; host or cells: HeLa cell extract
T5 sequence (Q9Y6D5 whole entry): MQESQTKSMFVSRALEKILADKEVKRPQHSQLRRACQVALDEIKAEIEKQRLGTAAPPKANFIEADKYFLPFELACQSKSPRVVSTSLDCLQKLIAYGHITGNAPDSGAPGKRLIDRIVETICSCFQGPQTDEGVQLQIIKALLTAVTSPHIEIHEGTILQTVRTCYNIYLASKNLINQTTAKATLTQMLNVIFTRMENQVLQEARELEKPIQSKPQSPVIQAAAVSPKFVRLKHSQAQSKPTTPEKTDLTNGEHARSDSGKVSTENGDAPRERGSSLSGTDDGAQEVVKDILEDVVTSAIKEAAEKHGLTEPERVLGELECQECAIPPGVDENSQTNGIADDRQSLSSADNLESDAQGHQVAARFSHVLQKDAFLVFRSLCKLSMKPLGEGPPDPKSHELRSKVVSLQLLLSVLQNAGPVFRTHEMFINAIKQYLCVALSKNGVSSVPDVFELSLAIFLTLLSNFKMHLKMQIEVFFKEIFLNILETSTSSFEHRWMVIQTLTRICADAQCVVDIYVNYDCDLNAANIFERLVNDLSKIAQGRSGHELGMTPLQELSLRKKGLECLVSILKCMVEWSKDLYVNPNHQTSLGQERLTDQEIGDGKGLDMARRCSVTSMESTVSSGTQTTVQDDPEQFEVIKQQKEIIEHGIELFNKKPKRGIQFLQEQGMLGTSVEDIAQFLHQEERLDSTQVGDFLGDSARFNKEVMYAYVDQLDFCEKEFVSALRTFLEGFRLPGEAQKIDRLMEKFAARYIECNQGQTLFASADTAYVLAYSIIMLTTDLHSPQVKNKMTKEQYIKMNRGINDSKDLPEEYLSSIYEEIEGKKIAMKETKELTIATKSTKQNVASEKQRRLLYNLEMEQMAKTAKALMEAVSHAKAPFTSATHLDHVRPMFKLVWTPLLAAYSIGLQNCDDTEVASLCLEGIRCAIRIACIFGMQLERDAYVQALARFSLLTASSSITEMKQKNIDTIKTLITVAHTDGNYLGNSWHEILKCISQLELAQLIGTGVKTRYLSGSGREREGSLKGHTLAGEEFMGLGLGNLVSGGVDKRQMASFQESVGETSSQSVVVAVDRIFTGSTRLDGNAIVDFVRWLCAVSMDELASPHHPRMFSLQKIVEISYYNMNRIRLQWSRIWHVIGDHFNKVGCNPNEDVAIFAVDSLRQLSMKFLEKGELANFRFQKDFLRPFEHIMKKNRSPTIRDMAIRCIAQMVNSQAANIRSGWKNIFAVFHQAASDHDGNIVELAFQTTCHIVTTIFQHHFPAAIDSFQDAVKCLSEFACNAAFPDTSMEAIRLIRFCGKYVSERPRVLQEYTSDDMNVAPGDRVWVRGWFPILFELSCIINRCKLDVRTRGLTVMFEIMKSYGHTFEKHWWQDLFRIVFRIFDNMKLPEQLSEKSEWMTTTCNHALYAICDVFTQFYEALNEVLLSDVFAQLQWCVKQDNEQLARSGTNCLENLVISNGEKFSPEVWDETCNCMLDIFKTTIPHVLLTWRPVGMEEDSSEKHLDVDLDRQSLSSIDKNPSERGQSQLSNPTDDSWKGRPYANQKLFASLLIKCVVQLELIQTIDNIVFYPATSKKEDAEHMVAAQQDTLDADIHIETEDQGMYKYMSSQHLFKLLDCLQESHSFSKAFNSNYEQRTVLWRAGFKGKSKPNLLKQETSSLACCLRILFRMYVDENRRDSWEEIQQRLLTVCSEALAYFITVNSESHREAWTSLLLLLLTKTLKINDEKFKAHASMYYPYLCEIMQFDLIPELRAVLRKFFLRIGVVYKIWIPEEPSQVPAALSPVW

[6] = molecular target: T6, HeLa cell extract proteins (Homo sapiens, UniProt Q9UPY5)
T6 construct: endogenous in cells; host or cells: HeLa cell extract
T6 sequence (Q9UPY5 1-501): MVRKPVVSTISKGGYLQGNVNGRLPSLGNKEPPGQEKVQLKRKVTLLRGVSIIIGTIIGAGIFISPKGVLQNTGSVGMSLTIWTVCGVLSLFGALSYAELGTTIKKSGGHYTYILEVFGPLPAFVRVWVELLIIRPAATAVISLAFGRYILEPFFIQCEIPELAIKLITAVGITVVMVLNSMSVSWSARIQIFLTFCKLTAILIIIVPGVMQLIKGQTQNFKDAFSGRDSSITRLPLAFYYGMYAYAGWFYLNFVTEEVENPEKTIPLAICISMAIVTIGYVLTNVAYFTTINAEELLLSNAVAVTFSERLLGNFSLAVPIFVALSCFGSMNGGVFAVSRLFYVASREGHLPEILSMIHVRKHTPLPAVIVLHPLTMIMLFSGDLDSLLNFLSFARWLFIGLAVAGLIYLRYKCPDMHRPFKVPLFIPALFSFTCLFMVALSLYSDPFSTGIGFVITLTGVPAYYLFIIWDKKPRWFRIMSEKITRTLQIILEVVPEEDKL

[7] = molecular target: T7, HeLa cell extract proteins (Homo sapiens, UniProt Q9UH17)
T7 construct: endogenous in cells; host or cells: HeLa cell extract
T7 sequence (Q9UH17 whole entry): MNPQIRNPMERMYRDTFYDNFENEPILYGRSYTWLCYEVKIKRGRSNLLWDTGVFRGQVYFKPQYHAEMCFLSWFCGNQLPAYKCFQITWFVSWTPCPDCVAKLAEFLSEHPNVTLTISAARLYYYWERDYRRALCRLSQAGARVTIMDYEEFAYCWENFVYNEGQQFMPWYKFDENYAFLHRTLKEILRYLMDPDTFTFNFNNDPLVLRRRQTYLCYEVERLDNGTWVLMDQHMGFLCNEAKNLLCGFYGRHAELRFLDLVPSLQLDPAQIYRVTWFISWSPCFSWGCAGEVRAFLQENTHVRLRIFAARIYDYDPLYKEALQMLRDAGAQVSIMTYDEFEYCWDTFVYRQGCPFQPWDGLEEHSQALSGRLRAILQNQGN

[8] = molecular target: T8, HeLa cell extract proteins (Homo sapiens, UniProt P16278)
T8 construct: endogenous in cells; host or cells: HeLa cell extract
T8 sequence (P16278 29-677): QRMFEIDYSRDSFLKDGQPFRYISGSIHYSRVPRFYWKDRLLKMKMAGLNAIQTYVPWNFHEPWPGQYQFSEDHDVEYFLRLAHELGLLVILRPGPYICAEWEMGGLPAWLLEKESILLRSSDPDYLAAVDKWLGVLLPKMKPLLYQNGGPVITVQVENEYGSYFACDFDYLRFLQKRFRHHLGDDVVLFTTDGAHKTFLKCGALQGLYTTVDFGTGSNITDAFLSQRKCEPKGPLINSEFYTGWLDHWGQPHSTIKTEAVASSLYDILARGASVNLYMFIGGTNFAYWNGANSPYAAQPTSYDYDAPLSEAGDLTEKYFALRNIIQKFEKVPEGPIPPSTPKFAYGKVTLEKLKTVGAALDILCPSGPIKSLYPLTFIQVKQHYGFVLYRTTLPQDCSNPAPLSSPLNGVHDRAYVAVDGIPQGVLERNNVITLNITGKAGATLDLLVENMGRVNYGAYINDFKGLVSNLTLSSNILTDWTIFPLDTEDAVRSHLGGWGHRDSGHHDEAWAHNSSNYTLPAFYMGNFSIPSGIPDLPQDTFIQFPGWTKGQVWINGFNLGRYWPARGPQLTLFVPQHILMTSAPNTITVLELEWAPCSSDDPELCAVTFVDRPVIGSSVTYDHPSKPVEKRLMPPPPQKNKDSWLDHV

[9] = molecular target: T9, HeLa cell extract proteins (Homo sapiens, UniProt A5YKK6)
T9 construct: endogenous in cells; host or cells: HeLa cell extract
T9 sequence (A5YKK6 whole entry): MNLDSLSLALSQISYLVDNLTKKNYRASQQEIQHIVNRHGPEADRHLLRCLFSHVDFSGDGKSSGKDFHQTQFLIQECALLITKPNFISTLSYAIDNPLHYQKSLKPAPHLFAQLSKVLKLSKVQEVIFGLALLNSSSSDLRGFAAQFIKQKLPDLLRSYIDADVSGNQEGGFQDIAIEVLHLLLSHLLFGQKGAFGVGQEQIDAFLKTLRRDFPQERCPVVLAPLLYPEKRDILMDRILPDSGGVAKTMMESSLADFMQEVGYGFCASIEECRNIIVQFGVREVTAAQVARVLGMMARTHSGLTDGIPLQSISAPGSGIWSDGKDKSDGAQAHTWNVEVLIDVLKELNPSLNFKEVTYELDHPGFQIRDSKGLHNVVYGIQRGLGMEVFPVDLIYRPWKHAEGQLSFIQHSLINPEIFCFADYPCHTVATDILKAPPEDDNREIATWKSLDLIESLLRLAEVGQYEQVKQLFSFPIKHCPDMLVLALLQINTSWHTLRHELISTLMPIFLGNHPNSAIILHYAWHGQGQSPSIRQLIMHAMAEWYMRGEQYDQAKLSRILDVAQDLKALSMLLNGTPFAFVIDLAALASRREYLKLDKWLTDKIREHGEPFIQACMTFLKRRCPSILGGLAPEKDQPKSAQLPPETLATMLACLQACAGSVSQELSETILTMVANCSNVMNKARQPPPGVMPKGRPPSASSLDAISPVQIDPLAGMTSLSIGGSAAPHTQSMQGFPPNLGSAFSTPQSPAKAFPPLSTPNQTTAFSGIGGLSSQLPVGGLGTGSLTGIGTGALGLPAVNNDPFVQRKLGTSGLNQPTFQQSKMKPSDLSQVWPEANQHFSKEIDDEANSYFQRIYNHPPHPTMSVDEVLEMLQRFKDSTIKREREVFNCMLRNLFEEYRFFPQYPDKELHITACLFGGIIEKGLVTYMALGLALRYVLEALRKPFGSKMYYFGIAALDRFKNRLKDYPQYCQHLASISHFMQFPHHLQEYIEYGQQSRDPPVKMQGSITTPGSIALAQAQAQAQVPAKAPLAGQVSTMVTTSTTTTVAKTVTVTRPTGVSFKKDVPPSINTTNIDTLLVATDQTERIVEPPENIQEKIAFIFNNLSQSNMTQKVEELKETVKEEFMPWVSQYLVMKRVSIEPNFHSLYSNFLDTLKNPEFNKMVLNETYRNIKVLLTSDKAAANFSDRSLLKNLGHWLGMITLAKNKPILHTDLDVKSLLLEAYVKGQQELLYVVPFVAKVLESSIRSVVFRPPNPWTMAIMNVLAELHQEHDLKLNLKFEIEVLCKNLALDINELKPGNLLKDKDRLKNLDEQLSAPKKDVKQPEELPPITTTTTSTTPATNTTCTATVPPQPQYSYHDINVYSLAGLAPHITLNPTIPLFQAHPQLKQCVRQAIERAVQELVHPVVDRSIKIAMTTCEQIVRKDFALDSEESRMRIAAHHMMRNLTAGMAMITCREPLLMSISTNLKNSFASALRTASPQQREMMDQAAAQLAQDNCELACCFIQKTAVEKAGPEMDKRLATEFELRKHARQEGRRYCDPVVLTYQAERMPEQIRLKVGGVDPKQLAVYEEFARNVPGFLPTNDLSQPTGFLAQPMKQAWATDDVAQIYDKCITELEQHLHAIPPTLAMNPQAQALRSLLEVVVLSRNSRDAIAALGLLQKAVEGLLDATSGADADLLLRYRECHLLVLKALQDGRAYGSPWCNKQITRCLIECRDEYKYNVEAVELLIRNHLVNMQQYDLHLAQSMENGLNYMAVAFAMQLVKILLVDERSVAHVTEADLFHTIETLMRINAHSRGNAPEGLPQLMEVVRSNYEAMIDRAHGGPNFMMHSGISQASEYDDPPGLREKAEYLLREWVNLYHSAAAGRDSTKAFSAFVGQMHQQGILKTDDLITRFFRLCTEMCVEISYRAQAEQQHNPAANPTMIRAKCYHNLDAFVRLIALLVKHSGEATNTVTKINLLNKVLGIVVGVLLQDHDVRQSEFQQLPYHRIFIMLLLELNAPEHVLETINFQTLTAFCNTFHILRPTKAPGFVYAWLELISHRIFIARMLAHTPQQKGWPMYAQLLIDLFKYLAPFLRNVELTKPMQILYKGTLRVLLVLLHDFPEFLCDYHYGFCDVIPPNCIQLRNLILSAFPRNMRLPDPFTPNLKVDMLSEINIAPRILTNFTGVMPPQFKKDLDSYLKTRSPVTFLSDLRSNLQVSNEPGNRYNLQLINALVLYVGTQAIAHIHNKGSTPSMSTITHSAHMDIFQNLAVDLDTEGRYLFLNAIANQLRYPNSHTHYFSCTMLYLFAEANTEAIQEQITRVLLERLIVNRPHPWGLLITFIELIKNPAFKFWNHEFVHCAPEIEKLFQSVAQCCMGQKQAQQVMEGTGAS

T1 sequence (P07237 18-508): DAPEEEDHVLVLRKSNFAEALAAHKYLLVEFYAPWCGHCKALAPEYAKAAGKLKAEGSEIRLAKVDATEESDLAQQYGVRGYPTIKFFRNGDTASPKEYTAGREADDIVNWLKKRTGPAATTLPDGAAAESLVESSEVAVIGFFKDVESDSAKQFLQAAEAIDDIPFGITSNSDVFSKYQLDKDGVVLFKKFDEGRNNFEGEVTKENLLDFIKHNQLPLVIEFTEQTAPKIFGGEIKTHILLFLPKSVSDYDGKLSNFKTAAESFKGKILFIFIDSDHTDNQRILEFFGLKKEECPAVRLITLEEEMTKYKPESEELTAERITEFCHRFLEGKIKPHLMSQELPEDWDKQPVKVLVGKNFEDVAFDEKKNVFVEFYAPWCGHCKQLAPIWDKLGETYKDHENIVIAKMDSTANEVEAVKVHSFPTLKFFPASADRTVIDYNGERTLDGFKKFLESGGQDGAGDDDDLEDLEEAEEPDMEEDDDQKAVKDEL

Row | SMILES | fold changes relative to vehicle control ([1]; HeLa, protein P4HB) | fold changes relative to vehicle control ([2]; HeLa, protein SPTLC1) | fold changes relative to vehicle control ([3]; HeLa, captured protein CLTB) | fold changes relative to vehicle control ([4]; HeLa, protein SLC25A3) | fold changes relative to vehicle control ([5]; HeLa, protein ARFGEF2) | fold changes relative to vehicle control ([6]; HeLa, captured protein SLC7A11) | fold changes relative to vehicle control ([7]; HeLa, protein APOBEC3B) | fold changes relative to vehicle control ([8]; HeLa, captured protein GLB1) | fold changes relative to vehicle control ([9]; HeLa, captured protein CNOT1) | fold changes relative to vehicle control ([1]; protein P4HB, HeLa) | fold changes relative to vehicle control ([2]; captured protein SPTLC1, HeLa) | fold changes relative to vehicle control ([3]; HeLa, protein CLTB) | fold changes relative to vehicle control ([6]; captured protein SLC7A11, HeLa) | fold changes relative to vehicle control ([8]; captured protein GLB1, HeLa) | fold changes relative to vehicle control ([9]; protein CNOT1, HeLa) | also measured
1 | Nc1nc2c(c(=O)[nH]1)N(C=O)C(CNc1ccc(C(=O)N[C@@H](CCC(=O)O)C(=O)O)cc1)CN2 (stereo partly drawn) [LEU, leucovorin] | 0.96 | 0.9 | 0.99 | 0.98 | 1.01 | 0.96 | 0.93 | 1.01 | 0.93 |  |  |  |  |  |  | 
2 | Nc1nc2[nH]cc(CCc3ccc(C(=O)N[C@@H](CCC(=O)O)C(=O)O)cc3)c2c(=O)[nH]1 [PTX, pemetrexed] |  |  |  |  |  |  |  |  |  |  |  |  |  |  |  | fold changes relative to vehicle control [1]: 1.03; fold changes relative to vehicle control [2]: 0.95; fold changes relative to vehicle control [3]: 1.2; fold changes relative to vehicle control [4]: 0.98; fold changes relative to vehicle control [5]: 1.01; fold changes relative to vehicle control [6]: 0.91; fold changes relative to vehicle control [7]: 0.89; fold changes relative to vehicle control [8]: 0.99; fold changes relative to vehicle control [9]: 1
3 | CCCCCCOc1ccc(Cc2cnc(N)nc2N)cc1 [compound 1] |  |  |  | 0.98 | 1.04 |  | 0.92 |  |  | 1.31 | 0.8 | 0.82 | 0.98 | 0.96 | 1.3 | 
4 | CCCCCCOc1cccc(Cc2cnc(N)nc2N)c1 [compound 2] |  |  |  | 0.96 | 1.11 |  | 1.25 |  |  | 1.79 | 1.03 | 1.18 | 0.92 | 0.9 | 1.32 | 
5 | Nc1nc2cccc(-c3ccccc3)c2n1Cc1ccc(Cl)c(Cl)c1 [compound 3] |  |  |  | 1 | 0.95 |  | 1.01 |  |  | 1 | 1.09 | 0.94 | 0.99 | 0.99 | 1.37 | 
6 | NCCOCCOCC(=O)Nc1nc2ncc(CNc3ccc(C(=O)NC(CCC(=O)O)C(=O)O)cc3)nc2c(=O)[nH]1 (stereo not drawn) [compound 6] | 1.19 | 0.95 | 1.23 | 1.04 | 1.15 | 0.93 | 1.02 | 0.99 | 1.17 |  |  |  |  |  |  | 
7 | NCCCNc1ccc(C(=O)NC(CCC(=O)O)C(=O)O)cc1 (stereo not drawn) [compound 7] | 0.92 | 1.03 | 1.14 | 1.11 | 1.17 | 0.95 | 0.94 | 1.07 | 1.16 |  |  |  |  |  |  | 
